Consider 13 compounds from patent publication US7524853B2 (Solvay Pharmaceuticals B.V., priority 2003, dated 2009).

Holding throughout (format): cell-based
For assay [1], the target named is T1, 17β-hydroxysteroid dehydrogenase type 2 (17β-HSD type 2) (Homo sapiens, UniProt P37059).
T1 construct: expressed in transfected cells; host or cells: MCF-7
T1 sequence (P37059 1-387): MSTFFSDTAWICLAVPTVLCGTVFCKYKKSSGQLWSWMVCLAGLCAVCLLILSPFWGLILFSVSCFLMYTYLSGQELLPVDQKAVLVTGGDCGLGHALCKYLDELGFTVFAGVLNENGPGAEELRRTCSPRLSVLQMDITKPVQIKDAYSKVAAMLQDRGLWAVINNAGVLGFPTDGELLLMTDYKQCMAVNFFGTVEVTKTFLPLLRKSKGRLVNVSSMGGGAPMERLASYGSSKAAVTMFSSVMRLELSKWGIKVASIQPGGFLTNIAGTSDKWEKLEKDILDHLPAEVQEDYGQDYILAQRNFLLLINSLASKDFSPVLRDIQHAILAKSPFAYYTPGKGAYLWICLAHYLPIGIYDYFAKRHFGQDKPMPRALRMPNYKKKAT
Briefly: Inhibition of 17β-HSD type 2 in MCF-7 cells stably expressing the isoenzyme (tritium labeled estradiol conversion, HPLC). The settings on record: MCF-7 cells expressing 17β-HSD type 2, 2 nM tritium labeled estradiol; for inhibition at 1 µM / inhibition at 10 µM: MCF7; for inhibition at 1 µM / % Inhibition HSD2 1 μM: 1 μM test compound; for inhibition at 1 µM: read-out: % Inhibition HSD2 1 μM; for inhibition at 10 µM / % Inhibition HSD2 10 μM: 10 μM test compound; for inhibition at 10 µM: read-out: % Inhibition HSD2 10 μM. The source says:
(§1) Biological Testing Materials and Methods 1. Inhibition of the 17β-hydroxysteroid dehydrocienase type 1, type 2 and type 3 enzyme
(§2) The compounds were screened in respect of 17β-HSD enzyme activity in vitro on established MCF-7 cell lines, each stably expressing one of the respective 17β-HSD isoenzymes. The interconversion of substrate by each isoenzyme and the 17β-HSD inhibiting activity of chemical compounds in these cell lines were detected by HPLC system.
(§3) Varying amounts of the test compounds were incubated in the growth medium of the 17β-HSD expressing cells together tritium labeled substrate (2 nM estrone for 17β-HSD type 1; 2 nM estradiol for 17β-HSD type 2; and 2 nM androstenedione for 17β-HSD type 3). The medium samples were removed after exact incubation time and the reaction is stopped by trichloroacetic acid (TCA). The samples were analyzed by HPLC-coupled flow scintillation analysis.
(§4) For each enzyme type, the HSD-inhibiting activity of an individual test compound was calculated by comparing the conversion of a control sample without any test compound (referred to as “Negative Control”) to the (reduced) conversion of the test sample containing the particular compound to be tested (referred to as “Test Sample”).
(§5) Two concentrations of each compound were used. The number of the compound refers to the numbers indicated in the Experimental Section.

Assay [2] concerns the target T2, 17β-hydroxysteroid dehydrogenase type 3 (17β-HSD type 3) (Homo sapiens, UniProt P37058).
T2 construct: expressed in transfected cells; host or cells: MCF-7
T2 sequence (P37058 1-310): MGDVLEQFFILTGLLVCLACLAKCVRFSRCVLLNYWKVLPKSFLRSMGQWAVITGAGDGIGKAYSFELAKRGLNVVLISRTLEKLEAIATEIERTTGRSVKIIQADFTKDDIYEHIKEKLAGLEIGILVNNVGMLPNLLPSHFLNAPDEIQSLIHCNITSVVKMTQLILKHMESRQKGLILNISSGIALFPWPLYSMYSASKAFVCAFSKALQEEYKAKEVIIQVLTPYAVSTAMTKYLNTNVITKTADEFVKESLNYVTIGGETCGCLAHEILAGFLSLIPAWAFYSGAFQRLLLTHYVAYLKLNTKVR
Kind of assay: Inhibition of 17β-HSD type 3 in MCF-7 cells stably expressing the isoenzyme (tritium labeled androstenedione conversion, HPLC). The settings on record: MCF-7 cells expressing 17β-HSD type 3, 2 nM tritium labeled androstenedione; for inhibition at 1 µM / inhibition at 10 µM: MCF7; for inhibition at 1 µM / % Inhibition HSD3 1 μM: 1 μM test compound; for inhibition at 1 µM: read-out: % Inhibition HSD3 1 μM; for inhibition at 10 µM / % Inhibition HSD3 10 μM: 10 μM test compound; for inhibition at 10 µM: read-out: % Inhibition HSD3 10 μM.
Excerpt: as §1, §2, §3, §4, §5

Assay [3] concerns the target T3, 17β-hydroxysteroid dehydrogenase type 1 (17β-HSD type 1) (Homo sapiens, UniProt P14061).
T3 construct: expressed in transfected cells; host or cells: MCF-7
T3 sequence (P14061 1-328): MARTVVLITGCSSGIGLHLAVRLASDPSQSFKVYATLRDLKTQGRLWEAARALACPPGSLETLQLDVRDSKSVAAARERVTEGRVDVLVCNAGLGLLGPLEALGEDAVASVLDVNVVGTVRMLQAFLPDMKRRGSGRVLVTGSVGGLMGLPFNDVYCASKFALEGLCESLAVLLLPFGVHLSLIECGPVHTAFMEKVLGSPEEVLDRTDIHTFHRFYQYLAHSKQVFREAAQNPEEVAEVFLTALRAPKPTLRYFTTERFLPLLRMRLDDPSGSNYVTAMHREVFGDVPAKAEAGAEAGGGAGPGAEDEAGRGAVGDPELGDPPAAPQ
Kind of assay: Inhibition of 17β-HSD type 1 in MCF-7 cells stably expressing the isoenzyme (tritium labeled estrone conversion, HPLC). The settings on record: MCF-7 cells expressing 17β-HSD type 1, 2 nM tritium labeled estrone; for inhibition at 1 µM / inhibition at 10 µM: MCF7; for inhibition at 1 µM / % Inhibition HSD1 1 μM: 1 μM test compound; for inhibition at 1 µM: read-out: % Inhibition HSD1 1 μM; for inhibition at 10 µM / % Inhibition HSD1 10 μM: 10 μM test compound; for inhibition at 10 µM: read-out: % Inhibition HSD1 10 μM.
Excerpt: as §1, §2, §3, §4, §5

What is called inhibition is the relative decrease from the control value, in per cent. On to `CCCc1nc2sc3c(c2c(=O)n1Cc1ccc(Br)o1)CCC(Br)C3=O` (stereo not drawn) [No. 103, 7-Bromo-3-(5-bromofuran-2-ylmethyl)-2-propyl-6,7-dihydro-3H,5H-benzo[4,5]thieno[2,3-d]pyrimidine-4,8-dione], for which the inhibition at 1 µM in assay [1] was 30.7%; in assay [2], -7.7%; in assay [3], 16.2%. In addition, the inhibition at 10 µM in assay [1] worked out at 49.7%; in assay [2], 51.8%; in assay [3], 70.6%.

As for `COCCn1c(-c2cc(OC)c(OC)c(OC)c2)nc2sc3c(c2c1=O)CCCC3` [No. 108, 3-(2-Methoxyethyl)-2-(3,4,5-trimethoxyphenyl)-5,6,7,8-tetrahydro-3H-benzo[4,5]thieno[2,3-d]pyrimidin-4-one], the inhibition at 1 µM worked out at 9.6% in assay [1], 0.8% in assay [2] and 5.2% in assay [3]. Besides, the inhibition at 10 µM in assay [1] worked out at 7.4%; in assay [2] it was 9.8%; in assay [3], 11%.

For the compound `O=c1c2c(nc(CCc3ccccc3)n1Cc1ccccc1)sc1c(O)cccc12` [No. 659], in assay [1], the “% Inhibition HSD2 1 μM” value amounted to 16.3% and the “% Inhibition HSD2 10 μM” value was 33.9%. In assay [2], the “% Inhibition HSD3 1 μM” value stood at 22.9% and the “% Inhibition HSD3 10 μM” value was 76.1%. Further, in assay [3], the “% Inhibition HSD1 1 μM” value came to 14.4% and the “% Inhibition HSD1 10 μM” value is recorded as 35.4%.

As to `COc1cc(-c2nc3sc4c(c3c(=O)n2Cc2ccccc2)CCC(C=O)=C4Cl)cc(OC)c1OC` [No. 3, 3-Benzyl-8-chloro-4-oxo-2-(3,4,5-trimethoxyphenyl)-3,4,5,6-tetrahydro-benzo[4,5]thieno[2,3-d]pyrimidine-7-carbaldehyde], the figures for the inhibition at 1 µM in assay [1], in assay [2] and in assay [3] were -3.2%, -19.4% and 3.2%, respectively. Besides, the inhibition at 10 µM in assay [1] is 7.8%; in assay [2], 29.1%; in assay [3], 38.4%.

Turning to `CCOC1=C(C=O)CCc2c1sc1nc(-c3cc(OC)c(OC)c(OC)c3)n(Cc3ccccc3)c(=O)c21` [No. 7, 3-Benzyl-8-ethoxy-4-oxo-2-(3,4,5-trimethoxyphenyl)-3,4,5,6-tetrahydro-benzo[4,5]thieno[2,3-d]pyrimidine-7-carbaldehyde], the inhibition at 1 µM in assay [1] is 8.2%; in assay [2] it was -17.6%; in assay [3], 12.5%. Also, the figures for the inhibition at 10 µM in assay [1], in assay [2] and in assay [3] were 27%, 5.7% and 38.4%, respectively.

As for `O=c1c2c(nc(-c3ccc(F)cc3F)n1CCc1ccccc1)sc1c(O)cccc12` [No. 630], in assay [1], the “% Inhibition HSD2 1 μM” value is listed as 24.7% and the “% Inhibition HSD2 10 μM” value turned out to be 19.9%. Further, in assay [2], the “% Inhibition HSD3 1 μM” value is 10.9% and the “% Inhibition HSD3 10 μM” value is recorded as 35.4%. Also, in assay [3], the “% Inhibition HSD1 1 μM” value is 25.1% and the “% Inhibition HSD1 10 μM” value was 21.0%.

In the case of `Cc1nc2sc3c(c2c(=O)n1-c1ccccc1)CCC(Br)(Br)C3=O` [No. 45, 7,7-Dibromo-2-methyl-3-phenyl-6,7-dihydro-3H,5H-benzo[4,5]thieno[2,3-d]pyrimidine-4,8-dione], the inhibition at 1 µM in assay [1] was 3.5%; in assay [2], -2.2%; in assay [3], -7.7%. Moreover, the inhibition at 10 µM was 6.5% in assay [1], 4.1% in assay [2] and -18.3% in assay [3].

`COc1ccc(-c2nc3sc4c(Oc5ccccc5)c(C)ccc4c3c(=O)n2Cc2ccccc2)cc1` [No. 21, 3-Benzyl-7-methyl-2-(p-methoxyphenyl)-8-phenoxy-3H-benzo[4,5]thieno[2,3-d]pyrimidin-4-one]: the inhibition at 1 µM is -0.8% in assay [1], -4.8% in assay [2] and -1.8% in assay [3]. Also, the inhibition at 10 µM in assay [1] was 12.7%; in assay [2] it was 6.4%; in assay [3] it was -4.4%.

With `CCCCC(CC)c1nc2sc3c(O)cccc3c2c(=O)n1CCCC` (stereo not drawn) [No. 635], in assay [1], the “% Inhibition HSD2 1 μM” value is recorded as 15.4% and the “% Inhibition HSD2 10 μM” value came to 50.8%. Besides, in assay [2], the “% Inhibition HSD3 1 μM” value is reported as 11.6% and the “% Inhibition HSD3 10 μM” value is 62.5%. Also, in assay [3], the “% Inhibition HSD1 1 μM” value is recorded as 4.9% and the “% Inhibition HSD1 10 μM” value was determined as 18.9%.

Regarding `COCCn1c(-c2cccs2)nc2sc3c(c2c1=O)CCC(Br)C3=O` (stereo not drawn) [No. 76, 7-Bromo-3-(2-methoxyethyl)-2-thiophen-2-yl-6,7-dihydro-3H,5H-benzo[4,5]thieno[2,3-d]pyrimidine-4,8-dione], the inhibition at 1 µM in assay [1] came to 44.6%; in assay [2], 47.1%; in assay [3], 35.8%. The inhibition at 10 µM in assay [1] came out at 43.4%; in assay [2], 81.4%; in assay [3] it was 44.1%.

As to `CCC(C)Cn1c(-c2cc(OC)c(OC)c(OC)c2Cl)nc2sc3c(O)cccc3c2c1=O` (stereo not drawn) [No. 143, 2-(2-Chloro-3,4,5-trimethoxyphenyl)-8-hydroxy-3-(2-methylbutyl)-3H-benzo[4,5]thieno[2,3-d]pyrimidin-4-one], the inhibition at 1 µM was found to be 4.5% in assay [1], 12.5% in assay [2] and 40.1% in assay [3]. For the same compound, the inhibition at 10 µM amounted to 17.7% in assay [1], 52.1% in assay [2] and 74.2% in assay [3].

For the compound `O=c1c2c3c(sc2nc(-c2ccccc2)n1Cc1ccccc1)CCCC3` [No. 56, 3-Benzyl-2-phenyl-5,6,7,8-tetrahydro-3H-benzo[4,5]thieno[2,3-d]pyrimidin-4-one], the inhibition at 1 µM in assay [1] was found to be 18.8%; in assay [2], 14.7%; in assay [3], 21.3%. Also, the figures for the inhibition at 10 µM in assay [1], in assay [2] and in assay [3] were 24.5%, 41.9% and 33.2%, respectively.

Consider `CCCCn1c(-c2cc(OC)c(OC)c(OC)c2)nc2sc3c(O)cccc3c2c1=O` [No. 89, 3-Butyl-8-hydroxy-2-(3,4,5-trimethoxyphenyl)-3H-benzo[4,5]thieno[2,3-d]pyrimidin-4-one], for which the inhibition at 1 µM in assay [1] was 31.2%; in assay [2], 30.9%; in assay [3] it was 37.7%. Moreover, the inhibition at 10 µM in assay [1] was 40.1%; in assay [2], 80.1%; in assay [3], 84.7%.
